Reference: PubChem BioAssay (NCI)
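Each compound was tested at five concentrations against cells in 96-well plates for 48 hours. GI50 is the concentration that inhibits growth by half. The concentration for full growth arrest is given as TGI.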

Legend:
Assay in all cases: inhibition of tumour cell growth, NCI panel, 48 h
SW-620 colon = tested on: SW-620 colon
SNB-19 CNS = tested on: SNB-19 CNS
HL-60(TB) leukemia = tested on: HL-60(TB) leukemia
HOP-92 NSCLC = tested on: HOP-92 NSCLC
SF-295 CNS = tested on: SF-295 CNS
SF-268 CNS = tested on: SF-268 CNS
A498 renal = tested on: A498 renal
RPMI-8226 leukemia = tested on: RPMI-8226 leukemia
LOX IMVI melanoma = tested on: LOX IMVI melanoma
PC-3 prostate = tested on: PC-3 prostate
COLO 205 colon = tested on: COLO 205 colon
ACHN renal = tested on: ACHN renal
SF-539 CNS = tested on: SF-539 CNS
M14 melanoma = tested on: M14 melanoma
CCRF-CEM leukemia = tested on: CCRF-CEM leukemia
NCI-H226 lung = tested on: NCI-H226 lung
MALME-3M melanoma = tested on: MALME-3M melanoma
UO-31 renal = tested on: UO-31 renal
OVCAR-5 ovarian = tested on: OVCAR-5 ovarian
786-0 renal = tested on: 786-0 renal
MOLT-4 leukemia = tested on: MOLT-4 leukemia
NCI-H522 lung = tested on: NCI-H522 lung
K-562 leukemia = tested on: K-562 leukemia
SNB-75 CNS = tested on: SNB-75 CNS
HCT-15 colon = tested on: HCT-15 colon
OVCAR-4 ovarian = tested on: OVCAR-4 ovarian
SK-MEL-28 melanoma = tested on: SK-MEL-28 melanoma
A549 NSCLC = tested on: A549 NSCLC
HS 578T breast = tested on: HS 578T breast
HCT-116 colon = tested on: HCT-116 colon
HOP-62 NSCLC = tested on: HOP-62 NSCLC
NCI-H460 lung = tested on: NCI-H460 lung
NCI/ADR-RES ovarian = tested on: NCI/ADR-RES ovarian
KM12 colon = tested on: KM12 colon
U251 CNS = tested on: U251 CNS
UACC-257 melanoma = tested on: UACC-257 melanoma
UACC-62 melanoma = tested on: UACC-62 melanoma
IGROV1 ovarian = tested on: IGROV1 ovarian
EKVX NSCLC = tested on: EKVX NSCLC
MDA-MB-435 = tested on: MDA-MB-435
DU-145 prostate = tested on: DU-145 prostate
BT-549 breast = tested on: BT-549 breast
SK-MEL-5 melanoma = tested on: SK-MEL-5 melanoma
OVCAR-3 ovarian = tested on: OVCAR-3 ovarian
SR leukemia = tested on: SR leukemia
MCF7 breast = tested on: MCF7 breast
SK-MEL-2 melanoma = tested on: SK-MEL-2 melanoma
TK-10 renal = tested on: TK-10 renal
CAKI-1 renal = tested on: CAKI-1 renal
SK-OV-3 ovarian = tested on: SK-OV-3 ovarian
HT29 colon = tested on: HT29 colon
SN12C renal = tested on: SN12C renal
OVCAR-8 ovarian = tested on: OVCAR-8 ovarian
T-47D breast = tested on: T-47D breast
RXF 393 renal = tested on: RXF 393 renal
MDA-MB-231 breast = tested on: MDA-MB-231 breast
HCC-2998 colon = tested on: HCC-2998 colon

In the case of CCNC(=O)N1CCc2cc(OC)c(OCCc3ccc(OC)cc3)cc2C1c1ccc(OC)cc1C (stereo unspecified), the GI50 (SW-620 colon) is reported as 0.741 µM, the TGI (SW-620 colon) is reported as over 100 µM and the GI50 (SNB-19 CNS) is reported as 1.16 µM. For the same compound, the TGI (SNB-19 CNS) was over 100 µM, the GI50 (HL-60(TB) leukemia) was 0.583 µM and the TGI (HL-60(TB) leukemia) was 5.23 µM. For the same compound, the GI50 (HOP-92 NSCLC) was 3.91 µM, the TGI (HOP-92 NSCLC) was over 100 µM and the GI50 (SF-295 CNS) was 0.875 µM. For the same compound, the TGI (SF-295 CNS) was over 37.5 µM, the GI50 (SF-268 CNS) was 1.32 µM and the TGI (SF-268 CNS) was over 100 µM. For the same compound, the TGI (A498 renal) was over 22.2 µM, the GI50 (RPMI-8226 leukemia) was 0.486 µM and the TGI (RPMI-8226 leukemia) was 4.89 µM. The GI50 (LOX IMVI melanoma) was 0.3 µM, the GI50 (PC-3 prostate) was 0.489 µM and the TGI (PC-3 prostate) was over 100 µM. It also gave a GI50 (COLO 205 colon) of 1.07 µM, a TGI (COLO 205 colon) of over 100 µM and a GI50 (ACHN renal) of 0.755 µM. The TGI (ACHN renal) was over 100 µM, the GI50 (SF-539 CNS) was 0.572 µM and the TGI (SF-539 CNS) was 5.72 µM. The GI50 (M14 melanoma) was 1.24 µM, the TGI (M14 melanoma) was over 100 µM and the GI50 (CCRF-CEM leukemia) was 0.432 µM. For the same compound, the TGI (CCRF-CEM leukemia) was over 100 µM, the GI50 (NCI-H226 lung) was 2.72 µM and the TGI (NCI-H226 lung) was over 53.8 µM. It also gave a GI50 (MALME-3M melanoma) of 12.2 µM, a TGI (MALME-3M melanoma) of over 100 µM and a GI50 (UO-31 renal) of 1.45 µM. For the same compound, the TGI (UO-31 renal) was over 100 µM, the GI50 (OVCAR-5 ovarian) was 2.35 µM and the TGI (OVCAR-5 ovarian) was over 100 µM. For the same compound, the GI50 (786-0 renal) was 0.715 µM, the TGI (786-0 renal) was over 100 µM and the GI50 (MOLT-4 leukemia) was 0.314 µM. The TGI (MOLT-4 leukemia) was over 100 µM, the GI50 (NCI-H522 lung) was 0.698 µM and the TGI (NCI-H522 lung) was 3.34 µM. For the same compound, the GI50 (K-562 leukemia) was 0.242 µM, the TGI (K-562 leukemia) was over 100 µM and the GI50 (SNB-75 CNS) was 0.893 µM. The TGI (SNB-75 CNS) was over 27.2 µM, the GI50 (HCT-15 colon) was 0.168 µM and the TGI (HCT-15 colon) was over 100 µM. For the same compound, the GI50 (OVCAR-4 ovarian) was 3.73 µM, the TGI (OVCAR-4 ovarian) was over 100 µM and the GI50 (SK-MEL-28 melanoma) was 1.41 µM. It also gave a TGI (SK-MEL-28 melanoma) of over 100 µM, a GI50 (A549 NSCLC) of 1.39 µM and a TGI (A549 NSCLC) of over 100 µM. The GI50 (HS 578T breast) was 1.66 µM, the TGI (HS 578T breast) was over 31.1 µM and the GI50 (HCT-116 colon) was 0.232 µM. The TGI (HCT-116 colon) was over 100 µM, the GI50 (HOP-62 NSCLC) was 1.59 µM and the TGI (HOP-62 NSCLC) was over 100 µM. It also gave a GI50 (NCI-H460 lung) of 0.288 µM, a TGI (NCI-H460 lung) of over 32.9 µM and a GI50 (NCI/ADR-RES ovarian) of 0.871 µM. The TGI (NCI/ADR-RES ovarian) was over 30 µM, the GI50 (KM12 colon) was 1.12 µM and the TGI (KM12 colon) was over 100 µM. For the same compound, the GI50 (U251 CNS) was 0.557 µM, the TGI (U251 CNS) was over 100 µM and the GI50 (UACC-257 melanoma) was 6.66 µM. It also gave a TGI (UACC-257 melanoma) of over 100 µM, a GI50 (UACC-62 melanoma) of 0.644 µM and a TGI (UACC-62 melanoma) of over 100 µM. The GI50 (IGROV1 ovarian) was 0.755 µM, the TGI (IGROV1 ovarian) was over 100 µM and the GI50 (EKVX NSCLC) was 5.64 µM. It also gave a TGI (EKVX NSCLC) of over 100 µM, a GI50 (MDA-MB-435) of 0.77 µM and a TGI (MDA-MB-435) of 7.23 µM. The GI50 (DU-145 prostate) was 1.33 µM, the TGI (DU-145 prostate) was over 100 µM and the GI50 (BT-549 breast) was 1.36 µM. It also gave a GI50 (SK-MEL-5 melanoma) of 0.741 µM, a TGI (SK-MEL-5 melanoma) of 3.16 µM and a GI50 (OVCAR-3 ovarian) of 1.96 µM. The TGI (OVCAR-3 ovarian) was over 100 µM, the GI50 (SR leukemia) was 0.151 µM and the TGI (SR leukemia) was 2.69 µM. The GI50 (MCF7 breast) was 0.528 µM, the TGI (MCF7 breast) was over 100 µM and the GI50 (SK-MEL-2 melanoma) was 3.8 µM. For the same compound, the TGI (SK-MEL-2 melanoma) was over 29.7 µM, the GI50 (TK-10 renal) was 5.95 µM and the TGI (TK-10 renal) was over 100 µM. For the same compound, the GI50 (CAKI-1 renal) was 1.15 µM, the TGI (CAKI-1 renal) was over 100 µM and the GI50 (SK-OV-3 ovarian) was 5.44 µM. For the same compound, the TGI (SK-OV-3 ovarian) was over 100 µM, the GI50 (HT29 colon) was 0.694 µM and the TGI (HT29 colon) was 9.66 µM. The GI50 (SN12C renal) was 1.53 µM, the TGI (SN12C renal) was over 100 µM and the GI50 (OVCAR-8 ovarian) was 0.821 µM. For the same compound, the TGI (OVCAR-8 ovarian) was over 100 µM, the GI50 (T-47D breast) was 2.96 µM and the TGI (T-47D breast) was over 100 µM. For the same compound, the GI50 (RXF 393 renal) was 1.51 µM, the TGI (RXF 393 renal) was 4.19 µM and the GI50 (MDA-MB-231 breast) was 1.04 µM. The TGI (MDA-MB-231 breast) was over 100 µM, the GI50 (HCC-2998 colon) was 1.95 µM and the TGI (HCC-2998 colon) was over 100 µM.
